# Where two headings read alike, the source gives them in different places.
# Tests used:
# [1] = biological target: CYP2C9 (Homo sapiens, UniProt P11712); settings: background statement; cited from earlier work
# [2] = test system: MUC1-C; assay: Immunoblot of MUC1-C in growth factor-stimulated MCF-10A cells; format: cell-based, Human; settings: for HRG-induced increase in MUC1-C abundance: MCF-10A cells + HRG, indicated concentrations; for EGF- and HRG-induced MUC1-C translation: growth factor stimulation (summary in discussion)
# Method: (§1) Human MCF-10A mammary epithelial cells were grown in mammary epithelial growth medium (MEGM, Lonza). Human MCF-7 and MDA-MB-468 breast cancer cells were cultured in Dulbecco's modified Eagle's medium with 10% heat-inactivated fetal bovine serum (FBS), 100 U/ml penicillin, 100 μg/ml streptomycin and 2 mM L-glutamine. Human BT-549 cells were maintained in RPMI-1640 medium (ATCC) with 10% FBS and 0.023 IU/ml insulin. Cells were treated with EGF (Sigma), heregulin beta 1 (HRG; Neomarkers), cycloheximide (CHX, Calbiochem), U0126 (Calbiochem), LY294002 (Caymam Chemical Company), BEZ-235 (Selleckchem) and rapamycin Cell Signaling Technology). In certain experiments, MCF-10A cells were serum-starved overnight, and inhibitors were added 2.5 h prior to EGF or HRG treatment.
# (§2) Lysates from subconfluent cells were immunoblotted with anti-MUC1-C(AbS; Neomarkers), anti-β-actin (Sigma), anti-p-AKT, anti-AKT, anti-p-ERK1/2, anti-ERK1/2, anti-p-S6K1, anti-S6K1, anti-PCDC4, anti-eIF4E, eIF4A (Cell Signaling Technology) and anti-EGFR (Santa Cruz Technology) Immune complexes were detected with horseradish peroxidase-conjugated secondary antibodies and enhanced chemiluminescence (Amersham Biosciences). Intensity of certain signals was determined by densitometric scanning.
# [3] = cited from earlier work
# [4] = test system: mitogen-activated protein kinase kinase (MEK); settings: background statement; cited from earlier work
# [5] = test system: cancer cells; settings: literature, preclinical studies, cited from earlier work
# [6] = test system: MUC1-C; assay: Immunoblot of MUC1-C in MDA-MB-468 breast cancer cells; format: cell-based, Human; settings: MDA-MB-468 cells, 10 and 100 nM
# Method: as §1, §2
# [7] = test system: PDCD4; assay: Immunoblot of PDCD4 in MCF-10A cells; format: cell-based, Human; settings: 100 nM silvestrol
# Method: as §1, §2
# [8] = test system: cyclin D1, MYC and MCL1; settings: literature; cited from earlier work
# [9] = test system: β-actin; assay: β-actin abundance in growth factor-stimulated MCF-10A cells; format: cell-based, Human
# Method: as §2
# [10] = test system: cancer cells; settings: literature; cited from earlier work
# [11] = test system: eIF4A RNA helicase; settings: literature; cited from earlier work
# [12] = test system: MUC1-C; assay: Immunoblot of MUC1-C in MCF-7 breast cancer cells; format: cell-based, Human; settings: MCF-7 cells; for MUC1-C abundance: 100 nM
# Method: as §1, §2
# [13] = test system: MCF-10A cells; assay: EGF-stimulated MCF-10A cell growth, viable cell number by trypan blue exclusion; format: cell-based, Human; settings: 100 nM, 24 h with EGF, reseeded, counted at 48 h
# From the text: FIGS. 6A-D. MUC1-C translation is inhibited by CR-1-31-B in MCF-10A cells. (FIG. 6A) Structures of the indicated compounds.
# [14] = test system: MUC1-C; assay: Immunoblot of MUC1-C in BT-549 breast cancer cells; format: cell-based, Human; settings: BT-549 cells, 100 nM, data not shown
# Method: as §1, §2
# [15] = test system: MUC1 mRNA; assay: MUC1 mRNA by qRT-PCR in MCF-10A cells; format: cell-based, Human; settings: EGF stimulation
# Method: Total RNA was isolated from cells using an RNeasy Mini kit (Qiagen). cDNAs were synthesized with 0.3-1 μg RNA using the first-strand cDNA synthesis kit (Invitrogen). The SYBR green qPCR assay kit (Applied Biosystems) was used with 5 μl of 20-fold diluted cDNA from each sample, and the samples were amplified with the ABI Prism 7300 machine (Applied Biosystems).
# [16] = test system: MUC1 gene promoter; assay: MUC1 promoter luciferase assay in MCF-10A cells; format: cell-based, Human; settings: pMUC1-Luc, EGF 100 ng/ml 5 h
# Method: Control pGL3 or pGL3-MUC1-promoter constructs were transfected with the Renilla plasmid into cells in the presence of Lipofectamine. At 24 h after transfection, cells were serum-starved overnight, and then treated with EGF (100 ng/ml) for 5 h. Luciferase reporter activity was measured using the Promega Dual Glo kit.
# [17] = MCF-10A cells + EGF, CHX 10 ng/ml, U0126 10 μM, LY294002 50 μM, BEZ235 250 or 500 nM, rapamycin 100 nM, silvestrol, CR-1-31-B, CR-1-30-B indicated concentrations 24 h
# Sequence of CYP2C9 (P11712 whole entry): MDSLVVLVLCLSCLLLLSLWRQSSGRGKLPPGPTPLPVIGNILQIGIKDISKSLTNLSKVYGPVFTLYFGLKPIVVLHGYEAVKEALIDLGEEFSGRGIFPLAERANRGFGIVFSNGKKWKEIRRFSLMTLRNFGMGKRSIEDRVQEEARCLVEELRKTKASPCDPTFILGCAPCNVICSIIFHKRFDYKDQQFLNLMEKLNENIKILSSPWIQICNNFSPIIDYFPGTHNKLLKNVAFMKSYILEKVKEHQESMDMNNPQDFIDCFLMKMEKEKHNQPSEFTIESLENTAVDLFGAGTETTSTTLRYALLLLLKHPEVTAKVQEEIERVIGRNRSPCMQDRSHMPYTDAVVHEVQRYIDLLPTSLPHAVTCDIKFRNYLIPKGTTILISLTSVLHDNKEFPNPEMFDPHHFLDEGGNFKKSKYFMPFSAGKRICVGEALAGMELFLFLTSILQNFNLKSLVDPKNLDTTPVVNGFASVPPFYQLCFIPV
molecule,measurement,setting,value
"O=c1cc(-c2ccc(O)cc2)oc2cc(O)cc(O)c12 [Apigenin, 4′,5,7-trihydroxyflavone]",inhibition of CYP2C9,[1],potent inhibitor
Cn1c(=O)n(-c2ccc(C(C)(C)C#N)cc2)c2c3cc(-c4cnc5ccccc5c4)ccc3ncc21 [BEZ235],EGF-induced increase in MUC1-C abundance,[2]; [17],blocked
O=c1c(O)c(-c2ccc(O)cc2)oc2cc(O)cc(O)c12 [Kaempferol],solubility in water,[3],slightly soluble
"COc1cccc(-c2cc(=O)c3ccccc3o2)c1N [PD98059, 2-(2′-amino-3′-methoxyphenyl)-oxanaphthalen-4-one]",inhibition of MEK,[4],potent inhibitor
N#CC(=C(/N)Sc1ccccc1N)/C(C#N)=C(\N)Sc1ccccc1N [U0126],EGF-induced increase in MUC1-C abundance,[2],"not ERK1/2, blocked"
C[C@@H]1C[C@@H]([C@H](O)CC2CC(=O)NC(=O)C2)C(=O)[C@@H](C)C1 [cycloheximide],EGF-induced increase in MUC1-C abundance,[2]; [17],blocked
COC(=O)[C@H]1[C@@H](O)[C@@]2(O)c3c(OC)cc(O[C@@H]4O[C@@H]([C@H](O)CO)CO[C@H]4OC)cc3O[C@@]2(c2ccc(OC)cc2)[C@@H]1c1ccccc1 [silvestrol],anti-tumor activity in animal models,[5],promising anti-tumor activity
same,toxicity in animal models,[5],little toxicity
same,anti-tumor activity in animal models,[5]; listed as Silvestrol,active
same,MUC1-C abundance,[6],clearly detectable
same,PDCD4 abundance,[7],marked decrease
same,"production of cyclin D1, MYC and MCL1",[8],decreases
same,abundance of β-actin,[9],little effect
same,EGF-induced increase in MUC1-C abundance,[2]; [17],blocked
same,HRG-induced increase in MUC1-C abundance,[2]; 24 h,dose-dependent inhibitory effects
same,EGF- and HRG-induced MUC1-C translation,[2]; MCF-10A cells,substantially blocked
same,activity against cancer cells growing in vitro,[10],active
same,activity against eIF4A RNA helicase,[11],potent inhibitor
same,MUC1-C levels,[12]; 10 nM,limited effect
same,MUC1-C abundance,[12],more pronounced decrease
CR-1-31-B,MUC1-C abundance,[6],decreases
same,EGF-induced increase in MUC1-C abundance,[2]; [17],dose-dependent decrease
same,HRG-induced increase in MUC1-C abundance,[2]; 24 h,blocked
same,EGF- and HRG-induced MUC1-C translation,[2]; MCF-10A cells,similarly blocks
same,growth of MCF-10A cells in response to EGF,[13],attenuated
same,MUC1-C abundance,[12],downregulation
same,MUC1-C expression,[14],decreases
EGF: growth factor (Sigma) stimulating EGFR,MUC1 mRNA levels,[15],no apparent effect
same,activation of the MUC1 gene promoter,[16],no significant effect
same,increase in MUC1-C expression compared to baseline levels,"[2]; MCF-10A cells, growth factor stimulation (EGF 100 ng/ml, HRG 10 ng/ml), 24 h",65 fold
same,effect of growth factor stimulation on MUC1-C levels,"[12]; EGF 100 ng/ml, HRG data not shown",no apparent effect

# — patent publication US20150087598A1, “TREATING MUC1-EXPRESSING CANCERS WITH HELICASE INHIBITORS” (DANA-FARBER CANCER INSTITUTE, INC., priority 2012, published 2015)
